Source: patent US8192962B2, “Processes for detecting toxic substances” (Daikin Industries, Ltd., priority 2001, dated 2012)

Tested on: Unknown protein yeast genes
Test: DNA chip mRNA expression in yeast, unknown protein yeast genes (Table 1)
Type: cell-based, Saccharomyces cerevisiae S288C
Procedure, shortened: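 First, S288C yeast grown in YPD at 25° C. are dosed in log phase with one toxicant (growth-inhibiting, not lethal) for 2 h. Next, total RNA is extracted and poly(A) mRNA isolated and reverse-transcribed with Cy3/Cy5-dUTP. Finally, whole-genome chip fluorescence is read relative to unexposed cells.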

SMILES: [Cl][Cd][Cl] [(2), CdCl2]
- The level of expressed mRNA in the presence of chemical substance/The level of expressed mRNA in the absence of chemical substance (yeast gene YKL195W, incubated two hours with chemical substance): 0.5
- The level of expressed mRNA in the presence of chemical substance/The level of expressed mRNA in the absence of chemical substance (yeast gene YKR091W, incubated two hours with chemical substance): 2.3
- The level of expressed mRNA in the presence of chemical substance/The level of expressed mRNA in the absence of chemical substance (yeast gene YLR054C, incubated two hours with chemical substance): 1.5
- The level of expressed mRNA in the presence of chemical substance/The level of expressed mRNA in the absence of chemical substance (yeast gene YLR149C, incubated two hours with chemical substance): 1.9
- The level of expressed mRNA in the presence of chemical substance/The level of expressed mRNA in the absence of chemical substance (yeast gene YLR152C, incubated two hours with chemical substance): 1.3
- The level of expressed mRNA in the presence of chemical substance/The level of expressed mRNA in the absence of chemical substance (yeast gene YLR194C, incubated two hours with chemical substance): 2.2
- The level of expressed mRNA in the presence of chemical substance/The level of expressed mRNA in the absence of chemical substance (yeast gene YLR324W, incubated two hours with chemical substance): 1.2
- The level of expressed mRNA in the presence of chemical substance/The level of expressed mRNA in the absence of chemical substance (yeast gene YLR350W, incubated two hours with chemical substance): 1.9
- The level of expressed mRNA in the presence of chemical substance/The level of expressed mRNA in the absence of chemical substance (yeast gene YLR387C, incubated two hours with chemical substance): 1.6
- The level of expressed mRNA in the presence of chemical substance/The level of expressed mRNA in the absence of chemical substance (yeast gene YLR460C): 2.1
- The level of expressed mRNA in the presence of chemical substance/The level of expressed mRNA in the absence of chemical substance (yeast gene YML117W, incubated two hours with chemical substance): 2.2
- The level of expressed mRNA in the presence of chemical substance/The level of expressed mRNA in the absence of chemical substance (yeast gene YMR009W, incubated two hours with chemical substance): 1.9
- The level of expressed mRNA in the presence of chemical substance/The level of expressed mRNA in the absence of chemical substance (yeast gene YMR067C, incubated two hours with chemical substance): 0.9
- The level of expressed mRNA in the presence of chemical substance/The level of expressed mRNA in the absence of chemical substance (yeast gene YMR090W): 9.5
- The level of expressed mRNA in the presence of chemical substance/The level of expressed mRNA in the absence of chemical substance (yeast gene YMR095C, incubated two hours with chemical substance): 2.0
- The level of expressed mRNA in the presence of chemical substance/The level of expressed mRNA in the absence of chemical substance (yeast gene YMR097C, incubated two hours with chemical substance): 1.0
- The level of expressed mRNA in the presence of chemical substance/The level of expressed mRNA in the absence of chemical substance (yeast gene YMR102C, incubated two hours with chemical substance): 2.9
- The level of expressed mRNA in the presence of chemical substance/The level of expressed mRNA in the absence of chemical substance (yeast gene YMR107W, incubated two hours with chemical substance): 3.9
- The level of expressed mRNA in the presence of chemical substance/The level of expressed mRNA in the absence of chemical substance (yeast gene YMR180C, incubated two hours with chemical substance): 0.9
- The level of expressed mRNA in the presence of chemical substance/The level of expressed mRNA in the absence of chemical substance (yeast gene YMR184W, incubated two hours with chemical substance): 5.4
- The level of expressed mRNA in the presence of chemical substance/The level of expressed mRNA in the absence of chemical substance (yeast gene YMR191W, incubated two hours with chemical substance): 2.4
- The level of expressed mRNA in the presence of chemical substance/The level of expressed mRNA in the absence of chemical substance (yeast gene YMR295C, incubated two hours with chemical substance): 1.0
- The level of expressed mRNA in the presence of chemical substance/The level of expressed mRNA in the absence of chemical substance (yeast gene YMR316W, incubated two hours with chemical substance): 2.9
- The level of expressed mRNA in the presence of chemical substance/The level of expressed mRNA in the absence of chemical substance (yeast gene YNL044W, incubated two hours with chemical substance): 0.9
- The level of expressed mRNA in the presence of chemical substance/The level of expressed mRNA in the absence of chemical substance (yeast gene YNL074C, incubated two hours with chemical substance): 1.3
- The level of expressed mRNA in the presence of chemical substance/The level of expressed mRNA in the absence of chemical substance (yeast gene YNL092W, incubated two hours with chemical substance): 1.4
- The level of expressed mRNA in the presence of chemical substance/The level of expressed mRNA in the absence of chemical substance (yeast gene YNL115C, incubated two hours with chemical substance): 1.8
- The level of expressed mRNA in the presence of chemical substance/The level of expressed mRNA in the absence of chemical substance (yeast gene YNL156C, incubated two hours with chemical substance): 1.2
- The level of expressed mRNA in the presence of chemical substance/The level of expressed mRNA in the absence of chemical substance (yeast gene YNL234W, incubated two hours with chemical substance): 1.1
- The level of expressed mRNA in the presence of chemical substance/The level of expressed mRNA in the absence of chemical substance (yeast gene YNL281W, incubated two hours with chemical substance): 1.3
- The level of expressed mRNA in the presence of chemical substance/The level of expressed mRNA in the absence of chemical substance (yeast gene YNL305C, incubated two hours with chemical substance): 2.2
- The level of expressed mRNA in the presence of chemical substance/The level of expressed mRNA in the absence of chemical substance (yeast gene YNR068C, incubated two hours with chemical substance): 1.5
- The level of expressed mRNA in the presence of chemical substance/The level of expressed mRNA in the absence of chemical substance (yeast gene YOL032W, incubated two hours with chemical substance): 0.8
- The level of expressed mRNA in the presence of chemical substance/The level of expressed mRNA in the absence of chemical substance (yeast gene YOL036W, incubated two hours with chemical substance): 0.9
- The level of expressed mRNA in the presence of chemical substance/The level of expressed mRNA in the absence of chemical substance (yeast gene YOL047C, incubated two hours with chemical substance): 1.1
- The level of expressed mRNA in the presence of chemical substance/The level of expressed mRNA in the absence of chemical substance (yeast gene YOL071W, incubated two hours with chemical substance): 2.0
- The level of expressed mRNA in the presence of chemical substance/The level of expressed mRNA in the absence of chemical substance (yeast gene YOL082W, incubated two hours with chemical substance): 1.6
- The level of expressed mRNA in the presence of chemical substance/The level of expressed mRNA in the absence of chemical substance (yeast gene YOL083W, incubated two hours with chemical substance): 2.3
- The level of expressed mRNA in the presence of chemical substance/The level of expressed mRNA in the absence of chemical substance (yeast gene YOL117W, incubated two hours with chemical substance): 1.1
- The level of expressed mRNA in the presence of chemical substance/The level of expressed mRNA in the absence of chemical substance (yeast gene YOL131W, incubated two hours with chemical substance): 1.5
- The level of expressed mRNA in the presence of chemical substance/The level of expressed mRNA in the absence of chemical substance (yeast gene YOL150C): 3.7
- The level of expressed mRNA in the presence of chemical substance/The level of expressed mRNA in the absence of chemical substance (yeast gene YOL162W, incubated two hours with chemical substance): 6.9
- The level of expressed mRNA in the presence of chemical substance/The level of expressed mRNA in the absence of chemical substance (yeast gene YOR019W, incubated two hours with chemical substance): 1.2
- The level of expressed mRNA in the presence of chemical substance/The level of expressed mRNA in the absence of chemical substance (yeast gene YOR197W, incubated two hours with chemical substance): 1.0
- The level of expressed mRNA in the presence of chemical substance/The level of expressed mRNA in the absence of chemical substance (yeast gene YPL087W, incubated two hours with chemical substance): 5.1
- The level of expressed mRNA in the presence of chemical substance/The level of expressed mRNA in the absence of chemical substance (yeast gene YPL196W, incubated two hours with chemical substance): 1.6
- The level of expressed mRNA in the presence of chemical substance/The level of expressed mRNA in the absence of chemical substance (yeast gene YPL206C, incubated two hours with chemical substance): 2.9
- The level of expressed mRNA in the presence of chemical substance/The level of expressed mRNA in the absence of chemical substance (yeast gene YPL222W, incubated two hours with chemical substance): 3.5
- The level of expressed mRNA in the presence of chemical substance/The level of expressed mRNA in the absence of chemical substance (yeast gene YPR023C, incubated two hours with chemical substance): 1.4
- The level of expressed mRNA in the presence of chemical substance/The level of expressed mRNA in the absence of chemical substance (yeast gene YPR151C, incubated two hours with chemical substance): 2.0
